# Earlier results in patent US11931369B1, “Compositions and methods for treating epilepsy” (POVIVA CORP, priority 2023, dated 2024).
# Read-outs that look alike come from different tables or passages of the source.
structure (smiles),measurement,setting,value
"C=C(C)[C@@H]1CCC(C)=C[C@H]1c1c(O)cc(CCCCC)cc1O [Cannabidiol, 2-[(1R,6R)-6-Isopropenyl-3-methylcyclohex-2-en-1-yl]-5-pentylbenzene-1,3-diol]","Plasma concentration on Day 22 at target CBD dose, 5 hours, Mean",5 mg/kg/day (N = 10),72.1 ng/mL
same,"Plasma concentration on Day 22 at target CBD dose, Pre-dose, Mean",5 mg/kg/day (N = 10),23.0 ng/mL
same,"Plasma concentration on Day 22 at target CBD dose, […], Mean",5 mg/kg/day (N = 10),130 ng/mL
same,"Plasma concentration on Day 1 at starting CBD dose, 5 hours, Mean",5 mg/kg/day group (N = 10),10.0 ng/mL
same,"Plasma concentration on Day 1 at starting CBD dose, Pre-dose, Mean",5 mg/kg/day group (N = 10),0 ng/mL
same,"Plasma concentration on Day 1 at starting CBD dose, […], Mean",5 mg/kg/day group (N = 10),37.6 ng/mL
same,"Plasma concentration on Day 22 at target CBD dose, 5 hours, Mean",10 mg/kg/day (N = 8),288 ng/mL
same,"Plasma concentration on Day 22 at target CBD dose, Pre-dose, Mean",10 mg/kg/day (N = 8),62.1 ng/mL
same,"Plasma concentration on Day 22 at target CBD dose, […], Mean",10 mg/kg/day (N = 8),242 ng/mL
same,"Plasma concentration on Day 1 at starting CBD dose, 5 hours, Mean",10 mg/kg/day group (N = 8),11.3 ng/mL
same,"Plasma concentration on Day 1 at starting CBD dose, Pre-dose, Mean",10 mg/kg/day group (N = 8),0 ng/mL
same,"Plasma concentration on Day 1 at starting CBD dose, […], Mean",10 mg/kg/day group (N = 8),34.4 ng/mL
same,"Plasma concentration on Day 22 at target CBD dose, 5 hours, Mean",20 mg/kg/day (N = 9),308 ng/mL
same,"Plasma concentration on Day 22 at target CBD dose, Pre-dose, Mean",20 mg/kg/day (N = 9),121 ng/mL
same,"Plasma concentration on Day 22 at target CBD dose, […], Mean",20 mg/kg/day (N = 9),380 ng/mL
same,"Plasma concentration on Day 1 at starting CBD dose, 5 hours, Mean",20 mg/kg/day group (N = 9),25.3 ng/mL
same,"Plasma concentration on Day 1 at starting CBD dose, Pre-dose, Mean",20 mg/kg/day group (N = 9),0 ng/mL
same,"Plasma concentration on Day 1 at starting CBD dose, […], Mean",20 mg/kg/day group (N = 9),29.3 ng/mL
